Reference: patent US12540115B2, “Inhibitors of phospholipid synthesis and methods of use” (priority 2019, dated 2026)

Key:
[1] = test system: mouse hepatocellular carcinoma lines; test: Cancer cell proliferation, MTT assay on mouse hepatocellular carcinoma lines; type: cell-based; settings: treated 1-3 days, dosage range 1 mM to 0.1 nM; vs untreated (DMSO)
Experimental: (§1) FIG. 1-26 illustrate various exemplary GPAT inhibitors that suppress cancer cell proliferation. With reference to FIG. 1-26: BCL stands for Burkitt lymphoma line, all experiments on BCL were done using trypan blue and cell counts. Cells are treated 1-3 days with dosage range 1 mM to 0.1 nM. RCC stands for renal cell carcinoma, all experiments on RCC were in vivo experiments. Tumors are treated with dosage range 0.1 mg/kg to 100 mg/kg for X days, wherein X ranges from 7 to 30 days. All experiments are done in MTT assay on mouse hepatocellular carcinoma lines that are treated 1-3 days with the dosage range from 1 mM to 0.1 nM. The bar in each of FIGS. 1-26 entitled “Untreated” refers to a sample without an exemplary GPAT inhibitor compound, diluted in DMSO solvent.

Burkitt lymphoma line = Burkitt lymphoma line proliferation, trypan blue and cell counts; type: cell-based; settings: treated 1-3 days, dosage range 1 mM to 0.1 nM
Experimental: as §1

renal cell carcinoma = test: Renal cell carcinoma (RCC) in vivo tumor experiments; design: species or system mice; settings: dosage range 0.1 mg/kg to 100 mg/kg for 7 to 30 days
Experimental: as §1
MYC RCC mice were generated by crossing FVB/N-Tg(tetO-MYC)28aBop/J mice for MYC with Tg(Ggt1-tTA) #Agoc or (GGT-tTA) for kidney specificity. MYC HCC mice were generated by crossing FVB/N-Tg(tetO-MYC)28aBop/J mice for MYC with Tg(Cebpb-tTA)5Bjd or (LAP-tTA) for liver specificity. All parental lines had undergone at least 10 generations of backcrossing. MYC RCC and MYC HCC mice were bred on doxycycline until 4 weeks of age, when doxycycline was replaced with water for at least 2 weeks for tumorigenesis depending on the experiment described in the patent. […]

MYC-induced tumors = test: FSG67 in MYC-induced tumors, xenograft and primary mouse models; type: in vivo
Excerpt: We present a comprehensive overview of how the MYC oncogene controls lipogenesis to promote tumorigenesis. We find that MYC globally regulates the expression of key genes and their resulting proteins and metabolites in lipogenesis for human and murine cell lines as well as for transgenic mouse models. […] Desorption electrospray ionization mass spectrometric imaging (DESI-MSI) from tissue samples of several conditional transgenic mouse models identified in vivo metabolic changes in simple fatty acids and in complex phospholipids induced by MYC. […] Strong correlation between these in situ changes and elevation of gene expressions of cytidinediphosphate diacylglycerol pathway genes as well as fatty acid elongase genes were found. By administering FSG67, which inhibits GPAT, MYC-induced tumorigenesis was blocked, metabolic changes were suppressed, and tumors regressed in xenograft and primary mouse models.

[2] = target: glycerol 3-phosphate acyltransferase (GPAT); settings: read-out: IC50, inhibitor of glycerol 3-phosphate acyltransferase (GPAT); cited from earlier work
diet-induced obese mice = settings: cited from earlier work

Structure (SMILES)	cancer cell proliferation [1]	also measured
CCCCCCCCCS(=O)(=O)Nc1ccccc1C(=O)O [BTX 100]	suppresses cancer cell proliferation	
CC(C)CS(=O)(=O)Nc1ccccc1C(=O)O [BTX 106]		Burkitt lymphoma cell proliferation (Burkitt lymphoma line): suppresses Burkitt lymphoma cell proliferation
CCOCCS(=O)(=O)Nc1ccccc1C(=O)O [BTX 108]	suppresses cancer cell proliferation	
CC(C)S(=O)(=O)Nc1ccccc1C(=O)O [BTX 205]		renal cell carcinoma cell proliferation (renal cell carcinoma): suppresses renal cell carcinoma cell proliferation
CS(=O)(=O)Nc1ccccc1-c1nnn[nH]1 [BTX 281]	suppresses cancer cell proliferation	
CS(=O)(=O)Nc1ccccc1C(=O)O [BTX 601]	suppresses cancer cell proliferation	
CS(=O)(=O)Nc1ccccc1C#N [BTX 671]	suppresses cancer cell proliferation	
CS(=O)(=O)Nc1ccccc1CO [BTX 931]		Burkitt lymphoma cell proliferation (Burkitt lymphoma line): suppresses Burkitt lymphoma cell proliferation
CCCCS(=O)(=O)Nc1ccccc1-c1nnn[nH]1 [BTX 982]		Burkitt lymphoma cell proliferation (Burkitt lymphoma line): suppresses Burkitt lymphoma cell proliferation
O=C(O)c1ccccc1NS(=O)(=O)Cc1ccccc1 [BTX 1010]	suppresses cancer cell proliferation	
CCCCCCCCCS(=O)(=O)Nc1ccccc1F [BTX 1101]	suppresses cancer cell proliferation	
CCCCCCCCCS(=O)(=O)Nc1ccccc1Cl [BTX 2111]	suppresses cancer cell proliferation	
CCCCCCCCCS(=O)(=O)Nc1ccccc1Br [BTX 2121]	suppresses cancer cell proliferation	
CCCCCCCCCS(=O)(=O)N1C(=O)OCc2ccccc21 [BTX 2191]	suppresses cancer cell proliferation	
CCCCCCCCCS(=O)(=O)Nc1ccccc1S(C)(=O)=O [BTX 4171]	suppresses cancer cell proliferation	
CCCCCCCCCS(=O)(=O)Nc1ccccc1S(N)(=O)=O [BTX 8151]		Burkitt lymphoma cell proliferation (Burkitt lymphoma line): suppresses Burkitt lymphoma cell proliferation
CCCCCCCCCS(=O)(=O)Nc1ccccc1C(=O)NS(=O)(=O)C(F)(F)F [BTX 9141]		Burkitt lymphoma cell proliferation (Burkitt lymphoma line): suppresses Burkitt lymphoma cell proliferation
CCCCCCCCCNS(=O)(=O)c1ccccc1C(=O)O [BTX 9161]	suppresses cancer cell proliferation	
CCCCCCCCCN1C(=N)c2ccccc2S1(=O)=O [BTX 19102]	suppresses cancer cell proliferation	
CCCCCCCCCS(=O)(=O)Nc1ccccc1CO [BTX 83009]	suppresses cancer cell proliferation	
NC1=NS(=O)(=O)c2ccccc21 [BTX 291002]	suppresses cancer cell proliferation	
N#Cc1ccccc1S(N)(=O)=O [BTX 491001]	suppresses cancer cell proliferation	
CCCCCCCCCS(=O)(=O)Nc1ccccc1C(=O)O [FSG67, 2-(Nonylsulfonamido)benzoic acid]		MYC-induced tumorigenesis (MYC-induced tumors): blocked; metabolic changes (MYC-induced tumors): suppressed; tumors (regression) (MYC-induced tumors): regressed; IC50 [2]: 24 µM; body weight and adiposity (diet-induced obese mice): decrease body weight and adiposity; energy utilization as fatty acid oxidation (diet-induced obese mice): enhance energy utilization as fatty acid oxidation; food intake (diet-induced obese mice): reduce food intake; hepatic steatosis (diet-induced obese mice): reverse hepatic steatosis; insulin sensitivity (diet-induced obese mice): enhance insulin sensitivity
